Test results as given in US6498174B1, “Substituted oxazoles and thiazoles derivatives as hPPARγ and hPPARα activators” (SmithKline Beecham Corporation, priority 1998, dated 2002).

The compounds below were run on Male Zucker Diabetic Fatty rats (assay: In vivo evaluation in Zucker Diabetic Fatty rats). Conditions: oral gavage b.i.d., 7 days, percent reduction from vehicle control at day 7 relative to normalization (plasma glucose 140 mg/dL).
Design: species or system rat
Method: Male Zucker Diabetic Fatty rats were lightly anesthetized with isofluorane gas and bleed by tail vein to obtain postprandial baseline concentrations for plasma glucose, serum lipids and insulin. Animals were baseline matched by plasma glucose and randomized into vehicle or treatment groups with compound administration by oral gavage, b.i.d., beginning at 8.5 weeks of age. Selected compounds were administered as a suspension in 0.5% methylcellulose for 7 consecutive days. Changes in body weight and food consumption were monitored from representative animals from each group, over a 48 hr period. After 7 days of treatment animals were anesthetized, blood samples obtained and analyzed for plasma glucose and lactate, serum triglyceride, total and HDL cholesterol, non-esterified free fatty acids and insulin concentration. Livers were weighed and corrected for body weight. Values in Table 1 for % Glucose reduction represent a summary of the percent reduction from vehicle control animals at day 7 relative to normalization defined in this model as plasma glucose levels of 140 mg/dL.

Row | Compound | % Glucose Reduction
1 | C/C(=C/C(=O)c1ccccc1)N[C@@H](Cc1ccc(OCCc2nc(-c3ccccc3)oc2C)cc1)C(=O)O [Example 1, (2S)-2{[(Z)-1-methyl-3-oxo-3-phenyl-1-propenyl]amino}-3-{4-[2-(5-methyl-2-phenyl-1,3-oxazol-4-yl)ethoxy]phenyl}propanoic acid] | 39%
2 | C/C(=C/C(=O)c1ccccc1)N[C@@H](Cc1ccc(OCCc2nc(-c3ccc(C(F)(F)F)cc3)oc2C)cc1)C(=O)O [Example 7, (2S)-2-{[(Z)-1-methyl-3-oxo-3-phenyl-1-propenyl]amino}-3-[4-(2-{5-methyl-2-[4-(trifluoromethyl)phenyl]-1,3-oxazol-4-yl}ethoxy)phenyl]propanoic acid] | 34%
3 | C/C(=C/C(=O)c1ccc(F)c(F)c1F)N[C@@H](Cc1ccc(OCCc2nc(-c3ccccc3)oc2C)cc1)C(=O)O [Example 12, (2S)-2-{[(Z)-1-methyl-3-oxo-3-(2,3,4-trifluorophenyl)-1-propenyl]amino}-3-{4-[2-(5-methyl-2-phenyl-1,3-oxazol-4-yl)ethoxy]phenyl}propanoic acid] | 61%
4 | C/C(=C/C(=O)c1cc(F)c(F)cc1F)N[C@@H](Cc1ccc(OCCc2nc(-c3ccccc3)oc2C)cc1)C(=O)O [Example 16, (2S)-2-{[(Z)-1-methyl-3-oxo-3-(2,4,5-trifluorophenyl)-1-propenyl]amino}-3-{4-[2-(5-methyl-2-phenyl-1,3-oxazol-4-yl)ethoxy]phenyl}propanoic acid] | 59%
5 | CC/C(=C/C(=O)c1ccccc1)N[C@@H](Cc1ccc(OCCc2nc(-c3ccccc3)oc2C)cc1)C(=O)O [Example 20, (2S)-2-{[(Z)-1-ethyl-3-oxo-3-phenyl-1-propenyl]amino}-3-{4-[2-(5-methyl-2-phenyl-1,3-oxazol-4-yl)ethoxy]phenyl}propanoic acid] | 50%
6 | Cc1sc(-c2ccc(F)cc2)nc1CCOc1ccc(C[C@H](N/C(=C\C(=O)c2ccccc2)C(F)(F)F)C(=O)O)cc1 [Example 21, (2S)-3-(4-{2-[2-(4-fluorophenyl)-5-methyl-1,3-thiazol-4-yl]ethoxy}phenyl)-2-{[(Z)-3-oxo-3-phenyl-1-(trifluoromethyl)-1-propenyl]amino}propanoic acid] | 82%
7 | CC/C(=C/C(=O)c1ccc(C(F)(F)F)cc1)N[C@@H](Cc1ccc(OCCc2nc(-c3ccc(F)cc3)sc2C)cc1)C(=O)O [Example 22, (2S)-2-({(Z)-1-ethyl-3-oxo-3-[4-(trifluoromethyl)phenyl]-1propenyl}amino)-3-(4-{2-[2-(4-fluorophenyl)-5-methyl-1,3-thiazol-4-yl]ethoxy}phenyl)propanoic acid] | 49%
8 | CCCC/C(=C/C(=O)c1ccccc1)N[C@@H](Cc1ccc(OCCc2nc(-c3ccccc3)oc2C)cc1)C(=O)O [Example 23, (2S)-2-{[(Z)-1-butyl-3-oxo-3-phenyl-1-propenyl]amino}-3-{4-[2-(5-methyl-2-phenyl-1,3-oxazol-4-yl)ethoxy]phenyl}propanoic acid] | 86%
9 | C/C(=C/C(=O)c1ccc(Cl)cc1)N[C@@H](Cc1ccc(OCCc2nc(-c3ccccc3)oc2C)cc1)C(=O)O [Example 24, (2S)-2-{[(Z)-3-(4-chlorophenyl)-1-methyl-3-oxo-1-propenyl]amino}-3-{4-[2-(5-methyl-2-phenyl-1,3-oxazol-4-yl)ethoxy]phenyl}propanoic acid] | 45%
10 | CCC/C(=C/C(=O)c1ccccc1)N[C@@H](Cc1ccc(OCCc2nc(-c3ccccc3)oc2C)cc1)C(=O)O [Example 40] | 79%
11 | Cc1oc(-c2ccccc2)nc1CCOc1ccc(C[C@H](N/C(=C\C(=O)c2ccccc2)C(F)(F)F)C(=O)O)cc1 [Example 48, (2S)-3-{4-[2-(5-methyl-2-phenyl-1,3-oxazol-4-yl)ethoxy]phenyl}-2{[(Z)-3-oxo-3-phenyl-1-(trifluoromethyl)-1-propenyl]amino}propanoic acid] | 81%
